According to US20160303095A1, “METHODS OF TREATING HEPATITIS B VIRUS” (Gilead Sciences, Inc., priority 2015, published 2016):

Legend:
[1] = biological target: T1, KDM2B (Homo sapiens, UniProt Q8NHM5); assay: Biochemical KDM inhibition assay (LANCE), KDM2B; conditions: read-out: Biochemical IC50 KDM 2B
T1 construct: host or cells: Sf9 cells
T1 sequence (Q8NHM5 1-1336): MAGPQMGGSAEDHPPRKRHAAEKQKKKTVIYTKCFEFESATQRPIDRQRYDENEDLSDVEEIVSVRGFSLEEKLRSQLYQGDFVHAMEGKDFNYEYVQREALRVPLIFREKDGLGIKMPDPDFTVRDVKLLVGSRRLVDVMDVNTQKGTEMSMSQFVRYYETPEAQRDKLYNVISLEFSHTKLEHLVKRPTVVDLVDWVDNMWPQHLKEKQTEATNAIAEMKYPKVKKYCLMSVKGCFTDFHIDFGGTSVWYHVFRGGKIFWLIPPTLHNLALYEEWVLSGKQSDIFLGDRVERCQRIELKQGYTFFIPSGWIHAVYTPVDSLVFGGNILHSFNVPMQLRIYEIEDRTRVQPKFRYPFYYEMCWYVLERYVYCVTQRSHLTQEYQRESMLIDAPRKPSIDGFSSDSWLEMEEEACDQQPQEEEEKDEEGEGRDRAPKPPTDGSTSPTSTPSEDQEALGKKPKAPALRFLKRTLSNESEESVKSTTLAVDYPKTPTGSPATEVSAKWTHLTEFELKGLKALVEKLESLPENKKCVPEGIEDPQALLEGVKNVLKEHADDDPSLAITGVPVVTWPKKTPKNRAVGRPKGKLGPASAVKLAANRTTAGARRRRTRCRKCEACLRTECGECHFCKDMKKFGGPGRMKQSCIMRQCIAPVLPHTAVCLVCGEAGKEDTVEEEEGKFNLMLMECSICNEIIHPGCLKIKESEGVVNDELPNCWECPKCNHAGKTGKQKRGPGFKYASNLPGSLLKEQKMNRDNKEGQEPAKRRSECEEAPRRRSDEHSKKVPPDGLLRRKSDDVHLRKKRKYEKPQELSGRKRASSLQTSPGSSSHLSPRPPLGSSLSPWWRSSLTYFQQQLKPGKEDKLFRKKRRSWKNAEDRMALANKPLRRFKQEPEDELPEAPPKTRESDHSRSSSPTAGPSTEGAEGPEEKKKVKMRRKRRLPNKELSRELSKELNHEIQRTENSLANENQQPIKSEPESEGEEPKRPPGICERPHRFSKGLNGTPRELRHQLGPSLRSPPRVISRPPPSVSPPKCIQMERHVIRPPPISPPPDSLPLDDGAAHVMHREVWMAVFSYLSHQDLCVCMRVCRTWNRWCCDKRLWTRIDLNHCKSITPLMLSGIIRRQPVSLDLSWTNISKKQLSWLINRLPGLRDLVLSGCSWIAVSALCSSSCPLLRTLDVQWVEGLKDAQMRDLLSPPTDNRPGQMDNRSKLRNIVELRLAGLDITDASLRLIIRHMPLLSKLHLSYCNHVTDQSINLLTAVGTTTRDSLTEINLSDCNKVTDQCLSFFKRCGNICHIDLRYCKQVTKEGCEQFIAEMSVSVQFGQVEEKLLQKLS
Protocol: Representative compounds were characterized for their inhibition of KDM5 using biotinylated histone substrates. Inhibition was measured in vitro (CEREP Poitier, Le Bois l'Evêque, France) following experimental conditions described in Table 2. Briefly, the test compound, reference compound or water (control) was mixed with about 2-20 ng of recombinant, Human enzymes expressed in Sf9 cells in a buffer containing 45 mM Hepes/Tris (pH 7), 5 μM FAS, 100 μM ascorbic acid, 10 μM 2-oxoglutarate, 0.01% Tween 20 and 0.01% BSA. Thereafter, the reaction was initiated by adding the biotin-labeled substrate, and the mixture was incubated for 10-30 min at room temperature. For basal control measurements, the enzyme was omitted from the reaction mixture. Following incubation the reaction was stopped by adding 1 mM EDTA. After 5 min, the anti-methyl histone antibody labeled with europium chelate and the Ulight streptavidine (Perkin Elmer Waltham, Mass.) were added. After 60 min more, the fluorescence transfer was measured at λex=320 nm and λem=620 and λem=665 nm using a microplate reader (Envision, Perkin Elmer) (LANCE). The enzyme activity was determined by dividing the signal measured at λem=665 nm by that measured at 620 nm (ratio).

[2] = biological target: T2, KDM4A (Homo sapiens, UniProt O75164); assay: Biochemical KDM inhibition assay (LANCE), KDM4A; conditions: read-out: Biochemical IC50 KDM 4A
T2 construct: host or cells: Sf9 cells
T2 sequence (O75164 1-1064): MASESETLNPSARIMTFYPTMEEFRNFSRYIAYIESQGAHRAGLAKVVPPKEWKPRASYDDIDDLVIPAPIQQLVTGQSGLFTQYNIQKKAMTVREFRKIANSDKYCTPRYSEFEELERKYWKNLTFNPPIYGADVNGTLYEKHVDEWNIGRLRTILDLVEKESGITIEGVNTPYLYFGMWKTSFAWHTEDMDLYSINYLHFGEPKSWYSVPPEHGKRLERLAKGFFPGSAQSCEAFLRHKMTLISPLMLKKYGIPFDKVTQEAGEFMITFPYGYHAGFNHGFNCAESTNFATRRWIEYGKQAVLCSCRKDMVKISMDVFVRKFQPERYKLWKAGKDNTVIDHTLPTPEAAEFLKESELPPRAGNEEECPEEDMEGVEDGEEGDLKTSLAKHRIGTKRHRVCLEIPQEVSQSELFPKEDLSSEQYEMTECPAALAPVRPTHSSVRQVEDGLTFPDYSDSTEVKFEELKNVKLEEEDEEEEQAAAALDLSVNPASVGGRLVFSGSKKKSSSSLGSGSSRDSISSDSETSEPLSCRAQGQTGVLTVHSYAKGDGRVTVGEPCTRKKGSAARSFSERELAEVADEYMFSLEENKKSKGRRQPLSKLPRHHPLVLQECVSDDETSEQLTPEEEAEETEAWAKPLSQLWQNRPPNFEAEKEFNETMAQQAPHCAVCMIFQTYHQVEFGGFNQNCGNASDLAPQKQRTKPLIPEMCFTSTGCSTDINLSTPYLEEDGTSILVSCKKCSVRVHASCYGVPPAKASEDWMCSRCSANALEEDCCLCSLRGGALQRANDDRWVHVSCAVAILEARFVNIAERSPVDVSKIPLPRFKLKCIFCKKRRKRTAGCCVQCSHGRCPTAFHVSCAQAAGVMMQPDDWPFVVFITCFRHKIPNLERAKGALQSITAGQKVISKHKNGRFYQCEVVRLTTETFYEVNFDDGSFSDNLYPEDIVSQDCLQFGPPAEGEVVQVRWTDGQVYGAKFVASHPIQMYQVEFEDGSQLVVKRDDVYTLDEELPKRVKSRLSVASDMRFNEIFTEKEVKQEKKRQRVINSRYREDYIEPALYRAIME

SMILES	IC50 [1] [nM]	IC50 [2] [nM]
CCN(CC)CCCCNCc1cc(C(=O)O)ccn1 [Example 18]	12000	390
Cc1cc(Cl)ccc1COc1ccnn1-c1cc(C(=O)O)ccn1 [Example 11]	660	1000
Nc1c(C(=O)O)ccnc1C(=O)O [Example 7, reference compound]	160	490
O=C(O)c1ccncc1Nc1nn(CCN2CCC(F)(F)CC2)c2ccc(F)cc12 [Example 13]	2400	1100
CCN(CCN(C)C)C(=O)CNCc1cc(C(=O)O)ccn1 [Example 9]	1600	350
